Patent US20230257373A1, “QUORUM SENSING INHIBITORS AND METHODS OF USE” (priority 2020, published 2023)
Like-named read-outs stand apart in the source and are kept apart here.

How the values were obtained:
[1] = test system: PluxC-gfp reporter in V. coralliilyticus; experiment: PluxC-gfp reporter in V. coralliilyticus strains
[2] = test system: PluxC-gfp reporter in V. parahaemolyticus; experiment: PluxC-gfp reporter in V. parahaemolyticus strains; details: Vibrio parahaemolyticus
[3] = test system: PluxC-gfp reporter in V. campbellii; experiment: PluxC-gfp reporter in V. campbellii strains; details: Vibrio campbellii
[4] = test system: PluxC-gfp reporter in V. vulnificus; experiment: PluxC-gfp reporter in V. vulnificus strains; details: Vibrio vulnificus
V. campbellii LuxR [5] = target: T1, V. campbellii LuxR (Vibrio harveyi, UniProt P21308); experiment: E. coli dual-color bioassay (pKM699 LuxR, pJV064 reporter); assay type: cell-based; details: for Inhibition of LuxR in the E. coli bioassay (in words): GFP and mCherry reporters
T1 construct: expressed in transfected cells; host or cells: E. coli DH10B with pKM699 and reporter pJV064
Text: Previously, we developed a bioassay that consists of a dual-color fluorescent reporter plasmid that reports both LuxR activities: the luxCDABE promoter is activated by LuxR and drives expression of gfp, and the VIBHAR_05222 promoter is repressed by LuxR and drives expression of mCherry (van Kessel et al., 2013b) (FIG. 2A). We used this reporter plasmid in an E. coli strain that also contains a plasmid expressing LuxR from its native promoter.
A bioassay was developed to monitor LuxR function that consists of a dual-color reporter plasmid (pJV064) that reports both activities: the luxCDABE promoter is activated by LuxR and drives expression of gfp, and the 05222 promoter is repressed by LuxR and drives expression of mCherry (van Kessel, Ulrich et al. 2013). This reporter plasmid was used in an E. coli strain that also contains a plasmid (pKM699) expressing LuxR from its native promoter. E. coli cultures containing these two plasmids were grown at 30° C. in LB medium with chloramphenicol (10 μg/ml) and tetracycline (10 μg/ml) to select for the two plasmids. Compounds were added to the cultures at a range of concentrations, and the cultures were incubated for 16 hours shaking at 30° C.
The dual-promoter fluorescence reporter assays were performed using E. coli strain DH10B containing two plasmids: 1) plasmid pJV064 containing the PluxC fused to GFP and P05222fused to mCherry to assess LuxR transcriptional regulation, and 2) plasmid pKM699 expressing V. campbellii luxR under control of its native promoter or empty vector pLAFR2.

Vibrio strains = experiment: luxCDABE reporter across five Vibrio species; details: each Vibrio strain except V. cholerae
V. campbellii LuxR [6] = target: T1, V. campbellii LuxR; experiment: qRT-PCR and western blots in wild-type V. campbellii; assay type: cell-based
Text: The Qstatin-treated regulon overlapped with the SmcR regulon by more than 50%, with similar gene expression fold-changes. […] This is important to note because LuxR and HapR proteins are known to autorepress their own expression. To test the effects of adding inhibitors to V. campbellii LuxR, we added 10A, 10B, and 10C to wild-type V. campbellii and used qRT-PCR and western blots to examine the effects on luxR transcript and protein levels. We also examined the transcript levels for luxC and 05222 genes that are directly activated or repressed by LuxR, respectively.
All PCR reactions were performed using Phusion HF polymerase (NEB). T4 polynucleotide kinase (T4 PNK) used in EMSAs and all other enzymes were purchased from NEB and used according to manufacturer's instructions. Site-directed mutagenesis for construction of plasmids expressing mutant proteins was carried out using the Agilent QuikChange II XL Site-Directed Mutagenesis Kit. All oligonucleotides were purchased from Integrated DNA Technologies (IDT).ALL plasmid constructs were confirmed by DNA sequencing (Eurofins). Cloning details for plasmids are available upon request. Western blot analysis was performed as previously described (van Kessel et al., 2013b), except that new anti-LuxR antibodies were generated through Cocalico against purified LuxR protein. In addition, the western blots were probed with anti-RpoB (Neoclone).
Then cells were induced with 50 μM IPTG and grown under the same conditions until cells reached an OD600 of approximately 1, at which 5 mL of cells were collected by centrifugation and frozen in liquid N2. RNA was extracted using a Trizol/chloroform extraction protocol previously described (Rutherford et al., 2011). Quantitative real-time PCR (qRT-PCR) was performed as previously described (Chaparian et al., 2016). Samples were normalized to the internal standard hfq gene. The ΔΔCT values were used to analyze data from three independent biological replicates. Symbols on graphs represent the mean values and error bars represent the standard deviations. All statistical analysis was performed with functions from GraphPad Prism version 8.

[7] = read-out: Inhibition (IC50) of the PluxC-gfp reporter, Vcoral OCN 008
[8] = read-out: Inhibition (IC50) of the PluxC-gfp reporter, Vpara RIMD 2210633
[9] = read-out: Inhibition (IC50) of the PluxC-gfp reporter, Vcamp BB120
[10] = ATCC27562, read-out: Inhibition (IC50) of the PluxC-gfp reporter, Vvul ATCC 27562
[11] = read-out: Inhibition (IC50) of the PluxC-gfp reporter, Vcoral OCN 014
[12] = read-out: Inhibition (IC50) of the PluxC-gfp reporter, Vpara 12-297/B
[13] = read-out: Inhibition (IC50) of the PluxC-gfp reporter, Vpara D4
[14] = ATCC25920, read-out: Inhibition (IC50) of the PluxC-gfp reporter, Vcamp ATCC 25920
[15] = read-out: Inhibition (IC50) of the PluxC-gfp reporter, Vcamp HY01
[16] = read-out: IC50 in the bioassay (approximate)
[17] = read-out: Inhibition (IC50) of the PluxC-gfp reporter, Vvul CMPC6
[18] = read-out: Inhibition (IC50) of the PluxC-gfp reporter, Vvul YJ016

T1 sequence (P21308 whole entry): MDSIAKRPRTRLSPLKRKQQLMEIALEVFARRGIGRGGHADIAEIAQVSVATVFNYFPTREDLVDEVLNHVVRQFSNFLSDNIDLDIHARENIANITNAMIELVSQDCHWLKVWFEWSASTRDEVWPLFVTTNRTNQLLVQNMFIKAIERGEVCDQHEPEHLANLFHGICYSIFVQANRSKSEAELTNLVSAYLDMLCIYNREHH

Row | SMILES | IC50 [1, 7] | IC50 [2, 8] | IC50 [3, 9] | IC50 [4, 10] | IC50 [1, 11] | IC50 [2, 12] | IC50 [2, 13] | IC50 [3, 14] | IC50 [3, 15] | IC50 (V. campbellii LuxR [5]; [16]) | IC50 [4, 17] | IC50 [4, 18] | Inhibition of LuxR in the E. coli bioassay (in words) (V. campbellii LuxR [5]) | Effect in V. coralliilyticus OCN008 (in words) ([1]; OCN008) | IC50 (V. campbellii LuxR [5]; Table 2, titration, 16 hours, read-out: Inhibition (IC50) of GFP production by LuxR in E. coli bioassay) | IC50 values lower than Qstatin (Vibrio strains) | luxC transcripts (V. campbellii LuxR [6]; qRT-PCR, to levels in a ΔluxR strain) | 05222 transcripts (V. campbellii LuxR [6]; qRT-PCR, wild-type cultures) | LuxR protein level (V. campbellii LuxR [6]; western blot, wild-type V. campbellii)
1 | O=S(=O)(c1ccc(Cl)s1)n1cccc1 [Compound 3C, 1-((5-chlorothiophen-2-yl)sulfonyl)-1H-pyrrole] | 1.3 µM | 2 µM | 8.3 µM | 0.5 µM | – | – | – | – | – | – | – | – | – | – | – | – | – | – | –
2 | Cc1ccn(S(=O)(=O)c2ccc(Cl)s2)n1 [Compound 8C, 1-((5-chlorothiophen-2-yl)sulfonyl)-3-methyl-1H-pyrazole] | 2.7 µM | 3.8 µM | 6.7 µM | 0.7 µM | 8.4 µM | 3.3 µM | 4.5 µM | 1.5 µM | 2.7 µM | 10 to 20 µM | 4.6 µM | 1 µM | – | – | – | – | – | – | –
3 | Cc1ccn(S(=O)(=O)c2ccc(Br)s2)n1 [Compound 8A, 1-((5-bromothiophen-2-yl)sulfonyl)-3-methyl-1H-pyrazole] | 4.2 µM | 2 µM | 3.8 µM | 0.4 µM | 9.6 µM | 2.1 µM | 2.4 µM | 0.7 µM | 1.2 µM | 10 to 20 µM | 2.1 µM | 0.5 µM | – | – | – | – | – | – | –
4 | Cc1ccn(S(=O)(=O)c2cccs2)n1 [Compound 8B, 3-methyl-1-(thiophen-2-ylsulfonyl)-1H-pyrazole] | 26.1 µM | 7.3 µM | 32.4 µM | 1.9 µM | 26.8 µM | 6.7 µM | 8.4 µM | 3.9 µM | 8.7 µM | – | 11.5 µM | 3 µM | does not show inhibition | – | – | – | – | – | –
5 | O=C(c1ccc(COc2ccc(Cl)cc2)o1)N1CCN(Cc2ccc3c(c2)OCO3)CC1 [P0053 I18, (4-(benzo[d][1,3]dioxol-5-ylmethyl)piperazin-1-yl)(5-((4-chlorophenoxy)methyl)furan-2-yl)methanone] | 18.9 µM | 2.8 µM | 2 µM | 0.7 µM | 10.4 µM | 8.1 µM | 6.4 µM | 1.8 µM | 4.3 µM | – | 4.9 µM | 3.2 µM | – | – | – | – | – | – | –
6 | O=S(=O)(c1ccc(Cl)s1)n1cccn1 [Compound 1C, 1-((5-chlorothiophen-2-yl)sulfonyl)-1H-pyrazole] | 9.1 µM | 1.7 µM | 3.3 µM | 0.4 µM | 9.4 µM | 1.6 µM | 12.5 µM | 0.5 µM | 1 µM | – | 2.3 µM | 0.8 µM | – | – | – | – | – | – | –
7 | O=S(=O)(c1cccs1)n1cccn1 [Compound 1B, 1-(thiophen-2-ylsulfonyl)-1H-pyrazole] | 55.7 µM | 15.9 µM | 52.6 µM | 3.4 µM | 101 µM | 11.8 µM | 18.9 µM | 12.8 µM | 23.2 µM | – | 29.6 µM | 6.5 µM | – | – | – | – | – | – | –
8 | O=S(=O)(c1ccc(Br)s1)N1CCCC1 [P0074 H04, 1-((5-bromothiophen-2-yl)sulfonyl)pyrrolidine] | – | – | – | – | – | – | – | – | – | ~35 µM | – | – | consistent inhibition | – | – | – | – | – | –
9 | O=S(=O)(c1cccs1)n1cccc1 [Compound 3B, 1-(thiophen-2-ylsulfonyl)-1H-pyrrole] | 39.2 µM | 2.5 µM | 18.9 µM | 0.9 µM | 95.1 µM | 4 µM | 3.5 µM | 2 µM | 3.6 µM | – | 5.9 µM | 1.5 µM | – | most noticeable effect | – | – | – | – | –
10 | O=S(=O)(c1ccccc1)n1cccn1 [Compound 1E, 1-(phenylsulfonyl)-1H-pyrazole] | 49.2 µM | 11 µM | 51.4 µM | 2.7 µM | 66.2 µM | 8.1 µM | 12.7 µM | 8.4 µM | 14.8 µM | – | 22 µM | 4.6 µM | – | – | – | – | – | – | –
11 | FC(F)(F)C1CN(c2nc(-c3ccccc3)cs2)CCO1 (stereo not shown) [P2065 E16, 4-(4-phenylthiazol-2-yl)-2-(trifluoromethyl)morpholine] | – | – | – | – | – | – | – | – | – | – | – | – | only a minor inhibition | – | 5.3 µM | – | – | – | –
12 | O=S(=O)(c1ccc(Br)s1)n1ccc(-c2ccccc2)n1 [Compound 10A, 1-((5-bromothiophen-2-yl)sulfonyl)-3-phenyl-1H-pyrazole] | 2.09 µM | 0.63 µM | 0.58 µM | 0.00144 µM | 2.01 µM | 1.03 µM | 0.87 µM | 0.05 µM | 0.4 µM | 1 to 2 µM | 0.0339 µM | 0.00584 µM | most potent | – | – | ~10 fold | significantly decreased | significantly increased | visible increase
13 | O=S(=O)(c1ccc(Br)s1)n1cccc1 [Compound 3A, 1-((5-bromothiophen-2-yl)sulfonyl)-1H-pyrrole] | 23.1 µM | 2.6 µM | 15 µM | 0.7 µM | 22.6 µM | 3 µM | 2.8 µM | – | 1.6 µM | – | 6.1 µM | 1.3 µM | – | – | – | – | – | – | –
